Assays:
[1] = test system: RPE-Neo or RPE-MYC or RPE-MYC expressing an EGFP-Histone 2B fusion protein; assay: Phenotypic screening assay (arrest in mitosis, change in DNA content, cell death; GE IN-Cell Analyzer 2000); type: cell-based; details: Homo sapiens, compounds 20 nM to 20 μM, 24, 48 or 72 hours
[2] = test system: RPE-Neo or RPE-MYC or RPE-MYC expressing an EGFP-Histone 2B fusion protein; assay: MTT assays of cellular proliferation; type: cell-based; details: Homo sapiens, min. effective conc., read-out: Proliferative arrest (<50%)
[3] = read-out: Min. Effective conc. for Polyploidy (≥10%)
[4] = min. effective conc., read-out: Cell Death (>30%)
[5] = min. effective conc., read-out: Mitotic Arrest (≥10%)

SMILES | minimal effective concentration [1, 3] | minimal effective concentration [1, 4] | minimal effective concentration [1, 5] | minimal effective concentration [2]
CNC(=O)C1=C(O)c2ccccc2N(Cc2ccc(OC)cc2)C(=O)C1 [Example 91, 5-hydroxy-1-(4-methoxybenzyl)-N-methyl-2-oxo-2,3-dihydro-1H-benzo[b]azepine-4-carboxamide] | 10 to 30 µM | 10 to 30 µM | 1 to 10 µM | 10 to 30 µM
COC(=O)C1=C(O)c2ccccc2N(Cc2ccc(OC(F)(F)F)cc2)C(=O)C1 [Example 32, Methyl 5-hydroxy-2-oxo-1-(4-(trifluoromethoxy)benzyl)-2,3-dihydro-1H-benzo[b]azepine-4-carboxylate] |  |  |  | 30 to 1000 µM
COC(=O)Cc1ccc(CN2C(=O)CC(C(=O)OC)=C(O)c3ccccc32)cc1 [Example 42, Methyl 5-hydroxy-1-(4-(2-methoxy-2-oxoethyl)benzyl)-2-oxo-2,3-dihydro-1H-benzo[b]azepine-4-carboxylate] |  |  |  | 30 to 1000 µM
COC(=O)C1=C(O)c2ccccc2N(Cc2ccc(C#N)cc2)C(=O)C1 [Example 26, Methyl 1-(4-cyanobenzyl)-5-hydroxy-2-oxo-2,3-dihydro-1H-benzo[b]azepine-4-carboxylate] |  |  |  | 30 to 1000 µM
CNC(=O)C1=C(O)c2ccccc2N(Cc2ccc(C)c(F)c2)C(=O)C1 [Example 63, 1-(3-fluoro-4-methylbenzyl)-5-hydroxy-N-methyl-2-oxo-2,3-dihydro-1H-benzo[b]azepine-4-carboxamide] | 1 to 10 µM | 1 to 10 µM | 1 to 10 µM | 
COC(=O)C1=C(O)c2ccccc2N(Cc2cccc(F)c2F)C(=O)C1 [Example 22, Methyl 1-(2,3-difluorobenzyl)-5-hydroxy-2-oxo-2,3-dihydro-1H-benzo[b]azepine-4-carboxylate] |  | 30 to 1000 µM |  | 
Cc1ccc(CN2C(=O)CC(C(=O)C3CCCO3)=C(O)c3ccccc32)cc1F (stereo not shown) [Example 62, 1-(3-fluoro-4-methylbenzyl)-5-hydroxy-4-(tetrahydrofuran-2-carbonyl)-1,3-dihydro-2H-benzo[b]azepin-2-one] | 1 to 10 µM | 1 to 10 µM | 1 to 10 µM | 
Cc1ccc(CN2C(=O)CC(C(=O)C(C)(C)C)=C(O)c3ccccc32)cc1F [Example 60, 1-(3-fluoro-4-methylbenzyl)-5-hydroxy-4-pivaloyl-1,3-dihydro-2H-benzo[b]azepin-2-one] | 1 to 10 µM | 1 to 10 µM | 1 to 10 µM | 
Cc1ccc(CN2C(=O)CC(C(=O)C(F)(F)F)=C(O)c3ccccc32)cc1F [Example 68, 1-(3-fluoro-4-methylbenzyl)-5-hydroxy-4-(2,2,2-trifluoroacetyl)-1,3-dihydro-2H-benzo[b]azepin-2-one] | 10 to 30 µM | 10 to 30 µM | 10 to 30 µM | 
COC(=O)C1=C(O)c2ccccc2N(Cc2ccccc2C)C(=O)C1 [Example 35, Methyl 5-hydroxy-1-(2-methylbenzyl)-2-oxo-2,3-dihydro-1H-benzo[b]azepine-4-carboxylate] | 30 to 1000 µM | 30 to 1000 µM | 30 to 1000 µM | 
CCCC(=O)C1=C(O)c2ccccc2N(Cc2ccc(C)c(F)c2)C(=O)C1 [Example 57, 4-butyryl-1-(3-fluoro-4-methylbenzyl)-5-hydroxy-1,3-dihydro-2H-benzo[b]azepin-2-one] | 1 to 10 µM | 1 to 10 µM | 0.001 to 1 µM | 
COC(=O)C1=C(O)c2ccccc2N(Cc2cnc3ccccc3c2)C(=O)C1 [Example 12, Methyl 5-hydroxy-2-oxo-1-(quinolin-3-ylmethyl)-2,3-dihydro-1H-benzo[b]azepine-4-carboxylate] |  | 30 to 1000 µM |  | 
COC(=O)C1=C(O)c2ccccc2N(Cc2cc(OC)cc(OC)c2)C(=O)C1 [Example 11, Methyl 1-(3,5-dimethoxybenzyl)-5-hydroxy-2-oxo-2,3-dihydro-1H-benzo[b]azepine-4-carboxylate] |  |  |  | 30 to 1000 µM
COC(=O)C1=C(O)c2cc(OC)c(OC)cc2N(Cc2ccc(C)c(F)c2)C(=O)C1 [Example 54, Methyl 1-(3-fluoro-4-methylbenzyl)-5-hydroxy-7,8-dimethoxy-2-oxo-2,3-dihydro-1H-benzo[b]azepine-4-carboxylate] | 0.001 to 1 µM | 0.001 to 1 µM | 0.001 to 1 µM | 
CNC(=S)C1=C(O)c2ccccc2N(Cc2ccc(C)c(F)c2)C(=O)C1 [Example 67, 1-(3-fluoro-4-methylbenzyl)-5-hydroxy-N-methyl-2-oxo-2,3-dihydro-1H-benzo[b]azepine-4-carbothioamide] | 10 to 30 µM | 10 to 30 µM | 10 to 30 µM | 
COC(=O)C1=C(O)c2ccccc2N(Cc2ccc(C(C)C)cc2)C(=O)C1 [Example 30, Methyl 5-hydroxy-1-(4-isopropylbenzyl)-2-oxo-2,3-dihydro-1H-benzo[b]azepine-4-carboxylate] | 10 to 30 µM | 10 to 30 µM | 10 to 30 µM | 
COC(=O)C1=C(O)c2ccccc2N(Cc2cccc(F)c2)C(=O)C1 [Example 8, Methyl 1-(3-fluorobenzyl)-5-hydroxy-2-oxo-2,3-dihydro-1H-benzo[b]azepine-4-carboxylate] |  |  |  | 30 to 1000 µM
CCc1ccc(CN2C(=O)CC(C(=O)OC)=C(O)c3ccccc32)cc1 [Example 37, Methyl 1-(4-ethylbenzyl)-5-hydroxy-2-oxo-2,3-dihydro-1H-benzo[b]azepine-4-carboxylate] | 0.001 to 1 µM | 0.001 to 1 µM | 0.001 to 1 µM | 
CC(=O)C1=C(O)c2ccccc2N(Cc2ccc(C)c(F)c2)C(=O)C1 [Example 56, 4-acetyl-1-(3-fluoro-4-methylbenzyl)-5-hydroxy-1,3-dihydro-2H-benzo[b]azepin-2-one] | 1 to 10 µM |  | 1 to 10 µM | 
COC(=O)C1=C(O)c2ccccc2N(Cc2ccc(C(F)(F)F)cc2)C(=O)C1 [Example 40, Methyl 5-hydroxy-2-oxo-1-(4-(trifluoromethyl)benzyl)-2,3-dihydro-1H-benzo[b]azepine-4-carboxylate] | 1 to 10 µM | 1 to 10 µM | 1 to 10 µM | 
COC(=O)C1=C(O)c2ccccc2N(Cc2ccc(C)cc2C)C(=O)C1 [Example 29, Methyl 1-(2,4-dimethylbenzyl)-5-hydroxy-2-oxo-2,3-dihydro-1H-benzo[b]azepine-4-carboxylate] | 1 to 10 µM | 1 to 10 µM | 1 to 10 µM | 
COC(=O)C1=C(O)c2ccccc2N(Cc2ccc(C)cc2)C(=O)C1 [Example 7, Methyl 5-hydroxy-1-(4-methylbenzyl)-2-oxo-2,3-dihydro-1H-benzo[b]azepine-4-carboxylate] | 0.001 to 1 µM | 0.001 to 1 µM | 0.001 to 1 µM | 
COC(=O)C1=C(O)c2ccccc2N(Cc2ccc(C)c(Cl)c2)C(=O)C1 [Example 45, Methyl 1-(3-chloro-4-methylbenzyl)-5-hydroxy-2-oxo-2,3-dihydro-1H-benzo[b]azepine-4-carboxylate] | 1 to 10 µM | 1 to 10 µM | 1 to 10 µM | 

— patent US20240270695A1, “COMPOUNDS, COMPOSITIONS AND METHODS OF TREATING DISORDERS” (Chengdu Anticancer Bioscience LTD, priority 2021, published 2024)
